# “And” between values parts separate entries of the source, which are not always exact repeats. Equal values may be shown once. Read-outs that look alike come from different tables or passages of the source.
# Assays:
# [1] = Biodistribution of DHA after periorbital skin (NIODP) application to one eye; type: in vivo, Cynomolgus monkeys; settings: 6755.1 μg to OS via NIODP; for OD/OS retina ratio of DHA: undosed/dosed retina
# Method: An experiment was performed to determine the biodisposition of DHA following topical application to the periorbital skin that surrounds the anterior portion of the globe was performed.
# Docosahexaenoic acid (DHA) is an omega-3 fatty acid and an essential component for neuronal formation, function and protection. […] […] High concentrations of DHA (from 35.6 to 97.3 μg/g) were detected in the undoes retina, which is similar to the dosed retina.
# Moreover, compared to the baseline retina/plasma ratio of 7-fold, and with no significant changes in plasma, the retina/plasma ratios of DHA in the undosed eye were at least 30-fold at each post dose timepoint, signifying that the undosed retina uptake of DHA was not from blood circulation.
# [2] = DHA distribution after single periorbital skin administration; type: in vivo, Bama minipigs; settings: for concentration at 3 h: Bama, minipig, topical, 6092 μg/eye
# Method: In this example, 6092 μg/eye of DHA was applied to the periorbital skin of a left eye of a Bama minipig. […] 27133.8 ng/g of tissue and 24795.8 ng/g of tissue of DHA was measured in the left and right halves of the brain, respectively. Taking the average of these two numbers, the amount of DHA present in the brain 3 hours post-dosage was 25964.9 ng/g.
# Given that the average Bama pig brain weighs around 60 g, the amount of DHA delivered to the brain can be estimated to be 312,408 ng or 312 μg. Therefore, the percentage of administered dose=312 μg delivered to brain/6092 μg dosed=5.1% of DHA topically administered to the pig via periorbital administration was delivered to the brain. As a comparison, only about 0.025% of DHA that is orally administered is delivered to the brain or CNS.
# [3] = Baseline endogenous levels of DHA in monkeys; type: in vivo; settings: no NIODP dosing
# Description: The endogenous levels DHA is originated from normal diet and not attributable to NIODP administration.
# [4] = oral administration; comparison value; cited from earlier work
# [5] = 3 h, DHA 6092 μg to periorbital skin of left eye
smiles,measurement,setting,value
"CC/C=C\C/C=C\C/C=C\C/C=C\C/C=C\C/C=C\CCC(=O)O [DHA, docosahexaenoic acid]",concentration at 24 h,"[1]; cynomolgus monkey, vitreous humor of the undosed right eye (OD), topical, OD (undosed eye), 24 h, read-out: DHA in vitreous humor",0 ng/mL
same,OD/OS retina ratio of DHA,[1]; 0 h (baseline),100%
same,OD/OS retina ratio of DHA,[1]; 0.5 h,64%
same,OD/OS retina ratio of DHA,[1]; 3 h,146%
same,OD/OS retina ratio of DHA,[1]; 6 h,99%
same,OD/OS retina ratio of DHA,[1]; 24 h,75%
same,Drug Concentration in Plasma,"[2]; 0 h, DHA 6092 μg to periorbital skin of left eye",BLQ
same,Drug Concentration in Plasma,"[2]; 1 h, DHA 6092 μg to periorbital skin of left eye",BLQ
same,Percentage of administered dose delivered to the brain,"[2]; 3 h, DHA 6092 μg periorbital, whole brain estimate",5.1%
same,% of administered dose: Cerebrospinal fluid,[2]; [5],0%
same,% of administered dose: brain-left,[2]; [5],6%
same,% of administered dose: brain-right,[2]; [5],4%
same,% of administered dose: inferior rectus muscle-left,[2]; [5],0.004%
same,% of administered dose: inferior rectus muscle-right,[2]; [5],0.01%
same,% of administered dose: lateral rectus muscle-left,[2]; [5],0.02%
same,% of administered dose: lateral rectus muscle-right,[2]; [5],0.03%
same,% of administered dose: medial rectus muscle-left,[2]; [5],0.01%
same,% of administered dose: medial rectus muscle-right,[2]; [5],0.01%
same,% of administered dose: optic nerve-left,[2]; [5],0.03%
same,% of administered dose: optic nerve-right,[2]; [5],0.05%
same,% of administered dose: retina-left,[2]; [5],0.2%
same,% of administered dose: retina-right,[2]; [5],0.1%
same,% of administered dose: superior rectus muscle-left,[2]; [5],0.01%
same,% of administered dose: superior rectus muscle-right,[2]; [5],0%
same,Drug Concentration in Plasma,[2]; [5],BLQ
same,concentration at 3 h,"[2]; brain (average of left and right halves), 3 h, DHA 6092 μg to periorbital skin of left eye, read-out: Average DHA present in the brain (left and right halves)",26000 ng/g
same,concentration at 3 h,"[2]; brain, left half, 3 h, DHA 6092 μg to periorbital skin of left eye, read-out: Drug Concentration in Tissue: brain-left",27100 ng/g
same,concentration at 3 h,"[2]; brain, right half, 3 h, DHA 6092 μg to periorbital skin of left eye, read-out: Drug Concentration in Tissue: brain-right",24800 ng/g
same,concentration at 3 h,"[2]; cerebrospinal fluid, 3 h, DHA 6092 μg to periorbital skin of left eye, read-out: Drug Concentration in Tissue: Cerebrospinal fluid",0 ng/g
same,concentration at 3 h,"[2]; inferior rectus muscle, left (dosed side), 3 h, DHA 6092 μg to periorbital skin of left eye, read-out: Drug Concentration in Tissue: inferior rectus muscle-left",2750 ng/g
same,concentration at 3 h,"[2]; inferior rectus muscle, right (undosed side), 3 h, DHA 6092 μg to periorbital skin of left eye, read-out: Drug Concentration in Tissue: inferior rectus muscle-right",2340 ng/g
same,concentration at 3 h,"[2]; lateral rectus muscle, right, 3 h, DHA 6092 μg to periorbital skin of left eye, read-out: Drug Concentration in Tissue: lateral rectus muscle-right",1980 ng/g
same,concentration at 3 h,"[2]; lateral rectus muscle, 3 h, DHA 6092 μg to periorbital skin of left eye, read-out: Drug Concentration in Tissue: lateral rectus muscle-left",8100 ng/g
same,concentration at 3 h,"[2]; medial rectus muscle, left (dosed side), 3 h, DHA 6092 μg to periorbital skin of left eye, read-out: Drug Concentration in Tissue: medial rectus muscle-left",2720 ng/g
same,concentration at 3 h,"[2]; medial rectus muscle, right, 3 h, DHA 6092 μg to periorbital skin of left eye, read-out: Drug Concentration in Tissue: medial rectus muscle-right",1520 ng/g
same,concentration at 3 h,"[2]; optic nerve, left (dosed side), 3 h, DHA 6092 μg to periorbital skin of left eye, read-out: Drug Concentration in Tissue: optic nerve-left",10400 ng/g
same,concentration at 3 h,"[2]; optic nerve, right (undosed side), 3 h, DHA 6092 μg to periorbital skin of left eye, read-out: Drug Concentration in Tissue: optic nerve-right",15300 ng/g
same,concentration at 3 h,"[2]; retina, left (dosed side), 3 h, DHA 6092 μg to periorbital skin of left eye, read-out: Drug Concentration in Tissue: retina-left",61700 ng/g
same,concentration at 3 h,"[2]; retina, right (undosed side), 3 h, DHA 6092 μg to periorbital skin of left eye, read-out: Drug Concentration in Tissue: retina-right",42100 ng/g
same,concentration at 3 h,"[2]; superior rectus muscle, right, 3 h, DHA 6092 μg to periorbital skin of left eye, read-out: Drug Concentration in Tissue: superior rectus muscle-right",0 ng/g
same,concentration at 3 h,"[2]; superior rectus muscle, 3 h, DHA 6092 μg to periorbital skin of left eye, read-out: Drug Concentration in Tissue: superior rectus muscle-left",3050 ng/g
same,"Calculated Concentration, endogenous DHA in cornea",[3]; double blank samples,BLQ
same,"Calculated Concentration, endogenous DHA in plasma",[3]; double blank samples,0.5 µg/mL and 0.6 µg/mL
same,"Calculated Concentration, endogenous DHA in retina",[3]; double blank samples,16 µg/g and 17 µg/g
same,"Calculated Concentration, endogenous DHA in upper eyelid",[3]; double blank samples,BLQ
same,"Calculated Concentration, endogenous DHA in vitreous humor",[3]; double blank samples,BLQ
same,Endogenous levels of DHA in monkey ocular tissues,[3]; LLOQ=0.5 μg/mL,mostly below the lower limit of quantification (LLOQ=0.5 μg/mL) or negligible
same,Share of orally administered DHA delivered to the brain or CNS,[4],about 0.025%

# From patent publication US20240350447A1, “DELIVERY METHODS FOR TREATING BRAIN AND CENTRAL NERVOUS SYSTEM DISEASES” (JENIVISION INC., priority 2021, published 2024)
